Measurements as given in patent publication US9862746B2, “Compositions and methods relating to hindering DOT1L recruitment by MLL-fusion proteins” (The Regents of the University of Michigan, priority 2013, dated 2018).
Blank lines part the entries; values can stand above or below the molecule they belong to. Where a SMILES comes first, the peptide text is derived from it.

Key:
[1] = target: T1, AF9 (Homo sapiens, UniProt P42568); assay: Saturation Transfer Difference (STD) NMR; assay type: binding
T1 sequence (P42568 1-568): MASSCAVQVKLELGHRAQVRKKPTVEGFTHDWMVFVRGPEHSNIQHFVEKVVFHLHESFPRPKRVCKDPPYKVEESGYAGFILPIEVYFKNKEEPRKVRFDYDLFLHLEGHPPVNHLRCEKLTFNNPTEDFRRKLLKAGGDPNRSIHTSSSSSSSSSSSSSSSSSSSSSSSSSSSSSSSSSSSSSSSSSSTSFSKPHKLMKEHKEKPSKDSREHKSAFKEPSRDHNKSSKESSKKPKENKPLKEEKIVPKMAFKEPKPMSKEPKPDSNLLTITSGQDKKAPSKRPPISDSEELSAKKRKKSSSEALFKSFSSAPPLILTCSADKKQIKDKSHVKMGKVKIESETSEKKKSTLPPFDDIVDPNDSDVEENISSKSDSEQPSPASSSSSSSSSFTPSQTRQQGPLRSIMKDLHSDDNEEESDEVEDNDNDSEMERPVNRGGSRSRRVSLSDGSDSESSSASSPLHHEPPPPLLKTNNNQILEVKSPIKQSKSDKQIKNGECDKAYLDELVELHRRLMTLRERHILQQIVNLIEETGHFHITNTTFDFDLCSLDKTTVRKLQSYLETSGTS
Protocol: C) Globally fitted concentration series of 38 (100, 50, 25, 12.5 and 6.25 μM) binding to immobilized AF9 using OctetRed System (see Example 12).
To provide further validation of the hit selection in addition to the biochemical assays Saturation Transfer Difference (STD), NMR spectroscopy was used. NMR spectroscopy has been successfully utilized to detect and characterize the direct binding of small-molecule compounds to large biomolecules. This technique is also allowing characterization of the binding interactions and maps the ligand-protein contacts in the bound state, delineating which chemical moieties of the ligand molecule are key for molecular recognition by the protein (group epitope mapping, FIG. 20A). […] The direct binding of 38 was also confirmed with ThermoFluor biophysical binding assay. ThermoFluor exploits a well-known biophysical phenomenon where small changes in the intrinsic melting temperature of proteins in the presence of ligands are related to the equilibrium-binding constant. Compounds that interact with the native form of the protein will shift the equilibrium to the left, increasing the Tm, the temperature at which half the protein is unfolded. In the presence of compound 38, the Tm of MBP-AF9 protein increases in a dose-dependent manner, giving ΔTm of 1.2 degree in […] (FIG. 20B).

[2] = target: T2, GB1-AF9 (Homo sapiens, UniProt P42568); assay: FP competitive binding, displacement of Flu-DOT1L from GB1-AF9; settings: read-out: IC50, competition with DOT1L 10-mer fluorescein-labeled peptide for AF9
T2 construct: the recombinant GB1-AF9 protein (residues 497-568); made in house; host or cells: Escherichia coli BL21 (DE3)
T2 sequence (P42568 497-568): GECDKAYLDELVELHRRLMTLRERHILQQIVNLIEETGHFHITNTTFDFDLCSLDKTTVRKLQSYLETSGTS
Protocol: AF4 (749-775) protein and several peptides (AF4 14 mer, un-labeled and biotin-labeled DOT1L 10 mer peptide) were tested for their ability to displace the Flu-DOT1L from GB1-AF9 protein. The dose-dependent binding experiments were carried out in 96-well plates with serial dilutions of tested protein or peptides, GB1-AF9 protein (500 nM) and Flu-DOT1L (10 nM) in the same assay buffer and final volume of 125 μL. The polarization values were measured after 3 h incubation. Negative controls containing GB1-AF9 protein and probe (equivalent to 0% inhibition), and positive controls containing only free Flu-DOT1L probe (equivalent to 100% inhibition), were included on each assay plate. IC50 values were determined by nonlinear regression fitting of the competition curves (GraphPad Prism 5.0).

[3] = target: T3, ENL (Homo sapiens, UniProt Q03111); assay: Solution competitive SPR assay of peptides, ENL-DOT1L interaction; assay type: binding; settings: read-out: IC50 against ENL (block PPI DOT1L/ENL)
T3 construct: against AF9(497-568) and ENL (489-559) proteins running different tested concentrations over CM5 chip; MBP (pMSCG9-LIC vector); made in house; host or cells: Escherichia coli BL21 (DE3)
T3 sequence (Q03111 489-559): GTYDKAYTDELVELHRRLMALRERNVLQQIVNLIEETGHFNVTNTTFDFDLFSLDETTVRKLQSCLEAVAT
Protocol: (§1) Solution competitive SPR based assay was performed to determine the IC50 values of DOT1L peptides. […] Response units (RU) were measured at 15 seconds in the dissociation phase and the specific binding was calculated by subtracting the control surface (Fcl) signal from the surfaces with immobilized Mocr-DOT1L. IC50 values were determined by non-linear least squares analysis using Graph Pad Prism 5.0 software.

[4] = target: T4, AF9 (Homo sapiens, UniProt P42568); assay: Solution competitive SPR assay of peptides, AF9-DOT1L interaction; assay type: binding; parameters: against AF9(497-568) and ENL (489-559) proteins running different tested concentrations over CM5 chip; GB1 (pGB1-LIC vector); made in house; host or cells: Escherichia coli BL21 (DE3); settings: read-out: IC50 against AF9 (block PPI DOT1L/AF9)
T4 sequence (P42568 497-568): T2 sequence (P42568 497-568)
Protocol: as §1

[5] = test system: H3K79 methylation; assay: Global H3K79 methylation in MLL-AF9 transformed cells; assay type: cell-based, mouse; settings: 6 days treatment of MLL-AF9 transformed cells
Text: FIG. 23 presents cell growth curves of A) MLL-AF9 and B) Hoxa9/Meis1 transformed mouse cells and C) adult LSKs after treatment with 38. D) H3K79 methylation after 6 days treatment with 38 and EPZ004777 DOT1L inhibitor (see, e.g., Daigle, et al., Cancer Cell 20, 53-65 (2011)).
This example involves the assessment of cellular effects of compound 38. […] Compound 38 inhibited growth of MLL-AF9 cells in a dose-dependent manner (FIG. 23A), with cell growth inhibition starting after 4 days of treatment. […] The hypothesis predicts that compounds that can block the DOT1L recruitment, but not its catalytic activity, will not affect normal hematopoiesis, as well as the global level of H3K79 methylation. To test this hypothesis, the toxicity of compound 38 was tested on purified LSK (lin-sca-1+ckit+) progenitors from adult wild type mice (FIG. 23C).

[6] = target: T5, MBP-ENL (489-559) (Homo sapiens, UniProt Q03111); assay: Isothermal titration calorimetry with MBP-ENL; assay type: binding; settings: ITC, MBP-tagged ENL, 1:1 stoichiometry; read-out: KD to ENL protein
T5 construct: MBP-ENL (489-559) was dialysed extensively; made in house; host or cells: Escherichia coli BL21 (DE3)
T5 sequence (Q03111 489-559): T3 sequence (Q03111 489-559)
Protocol: Isothermal titration calorimetry—ITC was carried out using a Nano-ITC Micro Calorimeter (TA Instruments) at 20° C. MBP-ENL (489-559) was dialysed extensively against 50 mM Na2HPO4, (pH 7.5) and 100 mM NaCl, and 80 μM was used for titration studies of DOT1L 16-mer and 10-mer peptides, and 110 μM for DOT1L 7-mer titration. Tested peptides dissolved in the same buffer at 400 μM (DOT1L 16-mer and 10-mer) or 500 μM (DOT1L 7-mer) were tested by injecting 2 μl aliquots into the protein sample, at time intervals of […], to ensure that the titration peak returned to the baseline. The ITC data were analyzed by NanoAnalyze software package using a one site-binding model.

[7] = target: T6, DOT1L (826-1095) (Homo sapiens, UniProt Q8TEK3); assay: SPR binding of ENL fragments to immobilized Mocr-DOT1L (826-1095)
T6 construct: made in house; host or cells: Escherichia coli BL21 (DE3)
T6 sequence (Q8TEK3 826-1095): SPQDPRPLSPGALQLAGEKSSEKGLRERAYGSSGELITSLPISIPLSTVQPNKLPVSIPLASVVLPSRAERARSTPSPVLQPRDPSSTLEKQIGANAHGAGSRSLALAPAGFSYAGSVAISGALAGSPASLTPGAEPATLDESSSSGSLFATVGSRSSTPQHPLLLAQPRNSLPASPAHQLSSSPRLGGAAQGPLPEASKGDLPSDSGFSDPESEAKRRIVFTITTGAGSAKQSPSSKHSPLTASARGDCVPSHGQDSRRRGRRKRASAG
Protocol: FIG. 7 pertains to analyzing the C-terminal domain in ENL protein and its binding to DOT1L. A. Alignment of ENL and AF9 C-terminal domain. The predicted α-helices are marked with Helix 1 and Helix 2 and conserved residues are presented in grey. […] The kon, koff and Kd were calculated by simultaneous non-linear regression using 1:1 binding model and BIAevaluation 3.1 software. The experimental data are shown in black while the global fit analyses are shown in grey.
Surface Plasmon Resonance (SPR) binding studies—All SPR based experiments were performed on a BIAcore 2000 (BIAcore, GE Healthcare) instrument. Different tested DOT1L recombinant proteins were immobilized on a CM5 sensor chip by standard EDC/NHS coupling chemistry followed by ethanolamine deactivation of the surfaces. For immobilization of full length Flag-DOT1L protein, anti-Flag antibody (Sigma, Anti-FLAG M2) was immobilized on CM5 chip by the same amine coupling chemistry. HEK293 whole cells lysate with overexpressed Flag-DOT1L at 2.4 μg/l total protein concentration was injected over the Flag antibody surface, followed by injecting of AF9 and ENL in different concentrations. […] Binding parameters, kon, koff and Kd were calculated by simultaneous non-linear regression using BIAEvaluation software.

[8] = target: T4, AF9; assay: SPR competitive binding assay of small molecules, AF9-DOT1L; parameters: against AF9(497-568) and ENL (489-559) proteins running different tested concentrations over CM5 chip; GB1 (pGB1-LIC vector); made in house; host or cells: Escherichia coli BL21 (DE3); settings: SPR competitive based assay; read-out: AF9 IC50 ± SD
Text: Several secondary assays have already been developed to support hit confirmation and the hit-to-probe optimization process. The established and optimized SPR-based competitive assay utilizing DOT1L protein (826-1095) immobilized on the CM5 sensor chip was used as a secondary counter screen assay to validate binding of compounds to AF9. […] Both assays gave similar IC50 values.
(§2) To further validate the binding of the confirmed compounds and identify potential promiscuous inhibitors, several secondary assays have been developed to support hit confirmation and the hit-to-probe optimization process. In order to determine that the compounds bind effectively to the target and disrupt protein-protein interaction, a SPR competitive binding assay was used. This assay uses a platform that differs from the FP-based assay where DOT1L recombinant protein (residues […]) is immobilized on a CM5 chip, allowing for testing of the inhibitors for their ability to disrupt AF9-DOT1L protein-protein interactions.

[9] = Microsomal stability in mouse liver microsome; assay type: in vitro ADME; settings: with NADPH
Protocol: For optimization of this class of inhibitors besides testing their binding affinity, the physico-chemical properties and microsomal stability will be tested in order to obtain improvement at multiple levels, as necessary for fully optimized compounds. To obtain initial information about the stability of this chemical class of compounds, compounds 42 and 48 have been tested in microsomal stability using mouse liver microsome. […] If their structure is analyzed, the major difference between these two compounds is the R2 substituent, furan vs. thiophen.

[10] = target: T3, ENL; assay: SPR competitive binding assay of small molecules, ENL; settings: SPR competitive based assay; read-out: ENL IC50 ± SD
Text: as §2
This class of compounds was also tested for their binding against ENL protein, which is highly homologous with AF9.

Molecule: COc1cccc(Nc2nc(N3CCOCC3)c3c(n2)N(C)NC3)c1 [Compound 36]
STD effects (direct binding to AF9) [1]: strong STD effects

Molecule: CC[C@H](C)[C@H](NC(=O)[C@H](CCCCN)NC(=O)[C@@H](NC(=O)[C@H](CCSC)NC(=O)[C@H](CC(C)C)NC(C)=O)C(C)C)C(=O)N[C@H](C(=O)N[C@@H](CC(C)C)C(=O)N[C@@H](CC(=O)O)C(=O)N[C@@H](CC(C)C)C(=O)N[C@@H](CC(C)C)C(=O)N[C@@H](CO)C(=O)N[C@@H](CCCNC(=N)N)C(=O)N[C@H](C(=O)N1CCC[C@H]1C(N)=O)[C@@H](C)CC)[C@@H](C)O [AF4 14 mer, reference compound] (Ac-LMVKITLDLLSRIP-NH2)
IC50 [2]: 0.28 µM | IC50 [3]: 0.43 µM | IC50 [4]: 0.2 µM

Molecule: CC(C)N(CCCNC(=O)Nc1ccc(C(C)(C)C)cc1)C[C@H]1O[C@@H](n2ccc3c(N)ncnc32)[C@H](O)[C@@H]1O [EPZ004777, reference compound]
global H3K79 methylation level [5]: decreased global level of H3K79 methylation

Molecule: CCCc1ccc(S(=O)(=O)N2c3ccccc3NC3=C(C(=O)CCC3)C2c2ccco2)cc1 (stereo not drawn) [Compound 42]
IC50 [8]: 47.1 ± 2.3 µM | half time in mouse liver microsome [9]: 2 min | IC50 [10]: 58.1 ± 12 µM

Second part, the molecule after the results:

IC50 [2]: 0.56 µM
Molecule: recombinant AF4 protein: AF4 recombinant protein (749-775 residues) (LSPLRDTPPPQSLMVKITLDLLSRIPQ)

Kd [6]: 3.4 µM
Molecule: CC[C@H](C)[C@H](NC(=O)[C@@H]1CCCN1C(=O)[C@H](CC(C)C)NC(C)=O)C(=O)N[C@@H](CO)C(=O)N[C@H](C(=O)N1CCC[C@H]1C(=O)N[C@@H](CC(C)C)C(N)=O)[C@@H](C)CC [DOT1L 7 mer, Ac-LPISIPL-NH2] (Ac-LPISIPL-NH2)

Kd [7]: 14.6 µM
Molecule: ENL H2: recombinant fragment of ENL protein corresponding to predicted helix 2 (EETGHFNVTNTTFDFDLFSLDETTVRKLQSCLEAVAT)

IC50 [8]: 24.8 ± 1.3 µM | half time in mouse liver microsome [9]: > 60 min | IC50 [10]: 19.7 ± 4 µM
Molecule: CCc1ccc(S(=O)(=O)N2c3ccccc3NC3=C(C(=O)CCC3)C2c2cccs2)cc1 (stereo not drawn) [Compound 48]

Kd [7]: 2.8 µM
Molecule: ENL H1: recombinant fragment of ENL protein corresponding to predicted helix 1 (GTYDKAYTDELVELHRRLMALRERNVLQQIVNLIEETGHFNVTNTTFDFDLFSLDE)
